“And” between values parts separate entries of the source, which are not always exact repeats. Equal entries are not always repeated. Where two headings read alike, the source gives them in different places.
Test system: PfCRT variant E207H
Experiment: CQ uptake assay, oocytes expressing E207H
Type: cell-based, Plasmodium falciparum
Conditions: for Km: read-out: KM ± SEM
Experimental: Site-directed mutagenesis of PfCRT^Dd2 was performed as described using the megaprimer method with overlap extension[21],[54]. The primer pairs used are listed in Supplementary Table 6. Please note that a codon-optimized and oocyte-adapted version of PfCRT^Dd2 was used[22] (Supplementary Fig. 16). The resulting DNA fragment was cloned into the SP64T expression vector and verified by sequencing.
Oocytes were obtained as described previously. Briefly, adult (>2 years old) female X. laevis frogs (NASCO) were anesthetized in a cooled solution of ethyl 3-amino benzoate methanesulfonate (0.1%, w/v), followed by a surgical removal of parts of the ovary. The ovary lobes were carefully dissected and small pieces of oocytes were incubated in Ca^2+-free ND96 buffer (96 mM NaCl, 2 mM KCl, 1 mM MgCl2 buffered with 5 mM HEPES/NaOH, pH 7.5) supplemented with collagenase D (0.1%, w/v; Roche), BSA (0.5%, w/v), and 9 mm Na2HPO4 at 18 °C for 14-16 h while gentle shaking. After incubation, the oocytes were carefully washed several times with ND96 buffer (96 mM NaCl, 2 mM KCl, 1.8 mM CaCl2, 1 mM MgCl2 buffered with 5 mM HEPES/NaOH, pH 7.5) supplemented with 100 mg l^−1 gentamycin). Defolliculated and healthy-looking stage V-VI oocytes were manually selected for RNA microinjection. The RNA was generated as following: The codon-optimized sequences of PfCRT variants were cloned into the pSP64T expression vector. After vector linearization using the restriction endonucleases BamHI or SalI (New England Biolabs), transcription was performed using the in vitro SP6 mMessage mMachine Kit (Ambion)[34]. The obtained RNA was kept at −80 °C and diluted with nuclease-free water to a concentration of 0.6 μg μl^−1. Precision-bore glass capillary tubes (3.5-inch glass capillaries; Drummond Scientific Co.) were pulled on a vertical puller (P-87 Flaming/Brown micropipette puller, Sutter Instrument Co.), graduated, and placed on a microinjector (Nanoject II Auto-Nanoliter Injector, Drummond Scientific Co.). 50 nl of nuclease-free water alone (control oocytes) or 50 nl of 0.6 μg μl^−1 RNA were injected under stereomicroscopic control. Injected oocytes were incubated for 46–72 h at 18 °C with twice-daily buffer changes before usage in experiments.
Drug uptake assays were performed as described previously[21],[22],[24],[34]. […] The direction of radio-labeled drug transport is here from the mostly acidic extracellular solution (pH 4.5 or 6.0, as indicated) into the oocyte cytosol (pH ∼ 7.2), which corresponds to the efflux of drug from the acidic digestive vacuole (pH 5.2) into the parasite cytoplasm (pH 7.2). The topology of PfCRT in the oolemma is such that both the N- and C-terminus face the extracellular milieu[3],[22]. In the parasite, the N- and C-terminus face the lumen of the digestive vacuole. […] For determination of the amount of drug uptake for each oocyte, the reaction medium was removed and the oocytes were washed three times with 2 ml of ice-cold ND96 buffer. Each oocyte was individually transferred to a scintillation vial containing 5% sodium dodecyl sulfate (200 μl) for lysis. […] Oocytes that were injected with water instead of RNA were analyzed in parallel, representing the uptake of a drug by diffusion and/or endogenous permeation pathways. The resulting value represents the “background“ level of drug accumulation in oocytes (in-depth discussion in[22]). The specific PfCRT-mediated uptake was determined by subtracting the corresponding background value measured in water-injected oocytes from that of PfCRT-expressing oocytes. In all cases, at least three separate experiments were performed on oocytes from different frogs (biological replicate), and for each condition in an experiment, measurements were made from 10 oocytes per treatment. For pH 5.5, 6.0, and 6.5, ND96 was buffered with 5 mM MES/Tris base.

[1] = E207H, 50 µM CQ, 1 h, mean ± SEM

## CCN(CC)CCCC(C)Nc1ccnc2cc(Cl)ccc12 (stereo not drawn) [CQ, chloroquine]
10 μM CQ, pH 4.5
  E207H transport activity: 0.41 pmol oocyte-1 h-1 and 0.39 pmol oocyte-1 h-1 and 0.48 pmol oocyte-1 h-1
10 μM CQ, pH 6.0
  E207H transport activity: 0.74 pmol oocyte-1 h-1 and 0.57 pmol oocyte-1 h-1 and 1.12 pmol oocyte-1 h-1 and 0.76 pmol oocyte-1 h-1
50 μM CQ, pH 4.5
  E207H transport activity: 2.07 pmol oocyte-1 h-1 and 1.95 pmol oocyte-1 h-1 and 1.52 pmol oocyte-1 h-1
50 μM CQ, pH 6.0
  E207H transport activity: 4.71 pmol oocyte-1 h-1 and 5.16 pmol oocyte-1 h-1 and 4.70 pmol oocyte-1 h-1 and 3.98 pmol oocyte-1 h-1
100 μM CQ, pH 4.5
  E207H transport activity: 4.26 pmol oocyte-1 h-1 and 4.32 pmol oocyte-1 h-1 and 4.33 pmol oocyte-1 h-1 and 5.17 pmol oocyte-1 h-1
100 μM CQ, pH 6.0
  E207H transport activity: 8.51 pmol oocyte-1 h-1 and 8.56 pmol oocyte-1 h-1 and 9.98 pmol oocyte-1 h-1 and 9.68 pmol oocyte-1 h-1
200 μM CQ, pH 4.5
  E207H transport activity: 6.09 pmol oocyte-1 h-1 and 7.31 pmol oocyte-1 h-1 and 7.21 pmol oocyte-1 h-1
200 μM CQ, pH 6.0
  E207H transport activity: 12.59 pmol oocyte-1 h-1 and 12.95 pmol oocyte-1 h-1 and 14.47 pmol oocyte-1 h-1 and 12.58 pmol oocyte-1 h-1
300 μM CQ, pH 4.5
  E207H transport activity: 7.95 pmol oocyte-1 h-1 and 7.89 pmol oocyte-1 h-1 and 7.92 pmol oocyte-1 h-1 and 8.79 pmol oocyte-1 h-1
300 μM CQ, pH 6.0
  E207H transport activity: 15.93 pmol oocyte-1 h-1 and 18.38 pmol oocyte-1 h-1 and 15.91 pmol oocyte-1 h-1 and 15.89 pmol oocyte-1 h-1
400 μM CQ, pH 4.5
  E207H transport activity: 8.22 pmol oocyte-1 h-1 and 9.32 pmol oocyte-1 h-1 and 10.99 pmol oocyte-1 h-1 and 9.19 pmol oocyte-1 h-1
400 μM CQ, pH 6.0
  E207H transport activity: 18.75 pmol oocyte-1 h-1 and 17.55 pmol oocyte-1 h-1 and 18.62 pmol oocyte-1 h-1
500 μM CQ, pH 4.5
  E207H transport activity: 8.40 pmol oocyte-1 h-1 and 9.28 pmol oocyte-1 h-1 and 9.33 pmol oocyte-1 h-1 and 9.38 pmol oocyte-1 h-1
500 μM CQ, pH 6.0
  E207H transport activity: 19.42 pmol oocyte-1 h-1 and 18.73 pmol oocyte-1 h-1 and 21.15 pmol oocyte-1 h-1 and 18.43 pmol oocyte-1 h-1
CQ uptake, oocytes expressing E207H, pH 4.5, individual replicates (Fig 6c)
  E207H transport activity pH 4.5: 2.07 pmol oocyte-1 h-1 and 1.95 pmol oocyte-1 h-1 and 1.52 pmol oocyte-1 h-1
CQ uptake, oocytes expressing E207H, pH 5.0, individual replicates (Fig 6c)
  E207H transport activity pH 5.0: 2.16 pmol oocyte-1 h-1 and 3.19 pmol oocyte-1 h-1 and 2.08 pmol oocyte-1 h-1 and 1.56 pmol oocyte-1 h-1
CQ uptake, oocytes expressing E207H, pH 5.5, individual replicates (Fig 6c)
  E207H transport activity pH 5.5: 2.52 pmol oocyte-1 h-1 and 2.31 pmol oocyte-1 h-1 and 4.16 pmol oocyte-1 h-1 and 3.55 pmol oocyte-1 h-1
CQ uptake, oocytes expressing E207H, pH 6.0, individual replicates (Fig 6c)
  E207H transport activity pH 6.0: 4.71 pmol oocyte-1 h-1 and 5.16 pmol oocyte-1 h-1 and 4.70 pmol oocyte-1 h-1 and 3.98 pmol oocyte-1 h-1
CQ uptake, oocytes expressing E207H, pH 6.5, individual replicates (Fig 6c)
  E207H transport activity pH 6.5: 3.76 pmol oocyte-1 h-1 and 4.49 pmol oocyte-1 h-1 and 4.51 pmol oocyte-1 h-1 and 2.60 pmol oocyte-1 h-1
CQ uptake, oocytes expressing E207H, pH 7.0, individual replicates (Fig 6c)
  E207H transport activity pH 7.0: 2.49 pmol oocyte-1 h-1 and 3.47 pmol oocyte-1 h-1 and 3.41 pmol oocyte-1 h-1 and 2.67 pmol oocyte-1 h-1
E207H, pH 4.5
  Vmax ± SEM: 13 ± 1 pmol h^−1 oocyte ^−1
  Km: 230 ± 35 µM
E207H, pH 6.0
  Vmax ± SEM: 29 ± 1 pmol h^−1 oocyte ^−1
  Km: 230 ± 20 µM
[1]
  Activity at pH 4.5: 1.99 ± 0.16 pmol h-1 oocyte-1
  Activity at pH 6.0: 4.64 ± 0.21 pmol h-1 oocyte-1
E207H, CQ transport at pH 4.5 / pH 6.0
  R-value: 0.43 ± 0.03
pH 4.5, individual replicates, Fig 6b
  E207H transport activity pH 4.5: 2.07 pmol oocyte-1 h-1 and 1.95 pmol oocyte-1 h-1 and 1.52 pmol oocyte-1 h-1
pH 6.0, individual replicates, Fig 6b
  E207H transport activity pH 6.0: 4.71 pmol oocyte-1 h-1 and 5.16 pmol oocyte-1 h-1 and 4.70 pmol oocyte-1 h-1 and 3.98 pmol oocyte-1 h-1
Ratio of activity pH 4.5 / pH 6.0
  E207H R-value: 0.51 and 0.40 and 0.41 and 0.38

Source: PMC10349806 (Nature Communications, 2023)
